In patent US5171835A, “LHRH antagonists” (The Administrators of the Tulane Educational Fund, priority 1991, dated 1992):
Like-named read-outs stand apart in the source and are kept apart here. Square brackets hold non-standard residues; d marks the D form. dPhe(4-Cl) = N[C@H](Cc1ccc(Cl)cc1)C(=O)O; d2Nal = N[C@H](Cc1ccc2ccccc2c1)C(=O)O; dCit = NC(=O)NCCC[C@@H](N)C(=O)O; d3Pal = N[C@H](Cc1cccnc1)C(=O)O

Experiments:
[1] = test system: membrane receptors of human breast cancer cells; assay: Receptor binding, human breast cancer cell membranes (125I-[D-Trp6]LHRH as labelled ligand); details: 125I-[D-Trp]6 LHRH labelled ligand
Protocol: Affinity of peptides to rat pituitary and human breast cancer cell membranes is determined by using labelled LHRH and [D-Trp^6 ]LHRH. The assay is carried out similarly to that described by T. Kadar et al., Proc. Natl. Acad. Sci. USA, 85, 890-894 (1988) and M. Fekete et al., Endocrinology, 124, 946-955 (1989).

[2] = test system: perfused rat pituitary cell system (LH response to LH-RH); assay: LH-RH inhibiting activity in superfused rat pituitary cell system; format: cell-based
Protocol: Immediately after that, a mixture containing the same concentration of peptide and 3 nM LHRH is administered for 3 min. This was followed by four consecutive infusions of 3 nM LHRH for 3 min (1 ml perfusate) at 30 min intervals (30, 60, 90, 120 min). LH content of the 1 ml fractions collected is determined by radioimmunoassay (RIA).

[3] = test system: LH and FSH levels; assay: In vivo effect on LH and FSH levels in castrated male rats; parameters: species or system rat; details: s.c.
Protocol: (d) In vivo effect on LH and FSH levels was measured as described by L. Bokser et al. (Proc. Natl. Acad. Sci. US, accepted for publication.) Castrated male rats weighing 350-410 grams anaesthetized with urethane were injected subcutaneously with Peptide 7 and 8 in doses of 1.25 μg and 5.0 μg. Blood samples were taken from the jugular vein before injection and 1, 2, 3, 4, 6, 24 and 48 hours after the administration of peptides. Control animals were injected only with saline. LH and FSH levels were determined by specific RIAs.

[4] = test system: Dunning R3327 prostate cancer; assay: In vivo antitumor effect, Dunning R3327 prostate cancer in rats; parameters: species or system rat; details: for Size of tumor, treated group: 25 μg/day, ± SD
Protocol: Inhibition of growth of cancerous tumors in rats with compounds of Formula I was tested as described by Szende et al. (J. Natl. Cancer Inst., 82, 513-517, 1990; Szende et al., Cancer Research), 50, 3716-3721, 1990) by A. V. Schally and T. Redding (Proc. Natl. Acad. Sci. US, 84, 7279-7282, 1987), and by E. Korkut et al. (Proc. Natl. Acad. Sci. US, accepted for publication). Peptide 8 was dissolved in 45% aqueous propylene-glycol and was administered at a dose of 25 μg/day from an ALZET minipump to male rats bearing the androgen-dependent well-differentiated R3327 Dunning rat prostate adenocarcinoma. Tumors were measured weekly with microcalipers and tumor volumes were calculated. Duration of the treatment was 8 weeks, changing the minipumps at the end of the 4th week.

[5] = test system: LHRH; details: prior art; cited from earlier work
[6] = cited from earlier work
[7] = rats bearing Dunning R3327H prostate cancer

Ac-D-Nal(2)-D-Phe(4Cl)-D-Pal(3)-Ser-Tyr-D-Lys[A2 pr(Ac)2 ]-Leu-Arg-Pro-D-Ala-NH2 [Peptide 8]
Affinity Constant Ka 2 [1]: 6.16 µM⁻¹
Affinity Constant Ka 1 ([1]; NB = no binding): 1.57 nM⁻¹
% inhibition of LH response ([2]; antagonist to LH-RH ratio 1:1, 0 min): 64%
% inhibition of LH response ([2]; antagonist to LH-RH ratio 1:1, 30 min): 39%
% inhibition of LH response ([2]; antagonist to LH-RH ratio 1:1, 60 min): 27%
% inhibition of LH response ([2]; antagonist to LH-RH ratio 1:1, 90 min): 22%
% inhibition of LH response ([2]; antagonist to LH-RH ratio 3:1, 0 min): 99%
% inhibition of LH response ([2]; antagonist to LH-RH ratio 3:1, 30 min): 66%
% inhibition of LH response ([2]; antagonist to LH-RH ratio 3:1, 60 min): 47%
% inhibition of LH response ([2]; antagonist to LH-RH ratio 3:1, 90 min): 37%
activity on LH levels forty-eight hours after injection ([3]; dose of 1.25 μg, 48 hours, p<0.05): active
inhibition of LH levels forty-eight hours after injection ([3]; dose of 5 μg, 48 hours, p<0.05): significant inhibition
duration of significant decrease in the LH levels ([3]; p<0.01): more than 24 hours
Size of tumor, treated group ([4]; week 0): 4001 ± 1617 mm^3
Size of tumor, treated group ([4]; week 1): 5459 ± 1863 mm^3
Size of tumor, treated group ([4]; week 2): 5892 ± 1938 mm^3
Size of tumor, treated group ([4]; week 3): 6357 ± 2327 mm^3
Size of tumor, treated group ([4]; week 4, p<0.05): 6237 ± 2974 mm^3
Size of tumor, treated group ([4]; week 5, p<0.05): 7447 ± 3481 mm^3
Size of tumor, treated group ([4]; week 6, p<0.05): 8038 ± 4374 mm^3
Size of tumor, treated group ([4]; week 7, p<0.01): 8129 ± 3525 mm^3
Tumor doubling time ([4]; Dunning R3327H prostate cancer, rats, control group 12 days): 42 days
body weight during the treatment [4, 7]: did not change
weight of testis, seminal vesicles and ventral prostate [4, 7]: greatly reduced

Ac-[d2Nal][dPhe(4-Cl)][d3Pal]SY[dCit]LRP[dA]-NH2
LHRH antagonist / ovulation inhibition potency [5]: high inhibitory effect
side effects ([6]; prior art): no edematogenic and anaphylactoid side effects

[Ac-D-Nal(2)^1,D-Phe(4Cl)^2,D-Trp^3,D-hArg(Et)2^6,D-Ala^10 ] [Detirelix]
LHRH antagonist / ovulation inhibition potency [5]: powerful antagonist
side effects ([6]; in vivo): hypotensive and bradycardic side effect
